Key:
Assay type in all cases: cell-based
A control cell lines = experiment: MTT assay, A control cell lines (lung cancer cell)
Text: Please refer to Table 1 and FIGS. 4A-4C. According to a MTT assay (Table 1), various cell viabilities of the A control cell lines can be obtained and illustrated in FIG. 4A while the compounds No. 2˜30 are used to treat A control cell lines, wherein A control cell lines are lung cancer cell.

A3 cell lines = experiment: MTT assay, A3 cell lines (lung cancer stem cell)
Text: Please to FIG. 4B, various cell viabilities of the A3 cell lines can be obtained through the MTT assay and illustrated in FIG. 4B while the compounds No. 1˜30 are used to treat A3 cell lines, wherein A3 cell lines are lung cancer stem cell.

[1] = MTT assay, HEL299 fibroblast; conditions: human
Text: (§1) Please refer to FIG. 4C, various cell viabilities of the HEL299 cell lines can be obtained through the MTT assay while the compounds No. 1˜30 are used to treat HEL299 cell lines, wherein HEL299 cell lines are fibroblast.

HEL299 fibroblast = experiment: MTT assay, HEL299 fibroblast
Text: as §1

[2] = summary of MTT cell viabilities

Compound	cell viabilities of A control cell lines (MTT assay) (A control cell lines) [%]	cell viabilities of A3 cell lines (MTT assay) (A3 cell lines) [%]	inhibition effect on A3 cell line (in words) (A3 cell lines; [2])	viability [1] [%]	cytotoxicity effect on the normal fibroblast (in words) (HEL299 fibroblast)	inhibition effect on A control cell line (in words) (A control cell lines; [2])
CC(C)Sc1ccc2c(=O)c3ccccc3sc2c1Cl [No. 4, 4-Chloro-3-(isopropylthio)-9H-thioxanthen-9-one]	91.1 ± 2.02	56.1	inhibition effect	103	without the cytotoxicity effect	
Cc1cc(C)c(CSc2ccc3c(=O)c4ccccc4sc3c2Cl)c(C)c1 [No. 28, 4-Chloro-3-(2,4,6-trimethylbenzylthio)-9H-thioxanthen-9-one]	52.9	98.3 ± 2.25		91.2	without the cytotoxicity effect	inhibition effect
